Assay results taken from patent US10463754B2, “Process for decontaminating or sterilizing an article” (priority 2014, dated 2019).
Like-named read-outs stand apart in the source and are kept apart here.

Tested on: spores of Bacillus subtilis
Assay type: cell-based
Description: The efficacy of the inventive process is assessed using a time kill suspension test method and spores of Bacillus subtilis.
Peracetic acid (PAA) and hydrogen peroxide (H2O2) are prepared as concentrated stocks (3× concentrate). Each test contains 100 μl of the PAA concentrate and 100 μl of the H2O2 concentrate. Controls containing only PAA or H2O2 are also prepared. These contain 100 μl of either the PAA concentrate or H2O2 concentrate and 100 μl of de-ionized water. To each test, 100 μl of spores are added while starting the timer concurrently. The samples are mixed thoroughly. The temperature of the samples is room temperature. At the appropriate contact times, 10 μl of the appropriate test sample are placed into 90 μl of the appropriate neutralizing solution, mixed thoroughly and incubated for at least 10 minutes. Ten fold serial dilutions are prepared through 10^−6 and plated using the drop counting method. The plates are then incubated aerobically at 37° C. for 1-2 days. Following incubation, colony forming units (CFU) are counted using standard plate count techniques and converted to log 10 values for analysis.

OO [H2O2, hydrogen peroxide]
Time (min) to achieve 4 log reduction (H2O2 0.10% by weight, PAA 0.00% (H2O2 alone), extrapolated from experimental data): 2305.13 min
Time (min) to achieve 4 log reduction (H2O2 0.20% by weight, PAA 0.00% (H2O2 alone), extrapolated from experimental data): 1213.99 min
Time (min) to achieve 4 log reduction (H2O2 0.40% by weight, PAA 0.00% (H2O2 alone), extrapolated from experimental data): 639.34 min
Time (min) to achieve 4 log reduction (H2O2 0.80% by weight, PAA 0.00% (H2O2 alone)): 343.04 min
Time (min) to achieve 4 log reduction (H2O2 1.60% by weight, PAA 0.00% (H2O2 alone)): 168.96 min
Time (min) to achieve 4 log reduction (H2O2 3.20% by weight, PAA 0.00% (H2O2 alone)): 97.28 min
Time (min) to achieve 4 log reduction (H2O2 6.40% by weight, PAA 0.00% (H2O2 alone), room temperature): 48.64 min

CC(=O)OO [PAA, Peracetic acid]
Time (min) to achieve 4 log reduction (PAA 0.005% by weight, H2O2 0.00% (PAA alone), extrapolated from data for PAA 0.08, 0.16 and 0.32%): 711625 min
Time (min) to achieve 4 log reduction (PAA 0.01% by weight, H2O2 0.00% (PAA alone), extrapolated from data for PAA 0.08, 0.16 and 0.32%): 67744.68 min
Time (min) to achieve 4 log reduction (PAA 0.02% by weight, H2O2 0.00% (PAA alone), extrapolated from data for PAA 0.08, 0.16 and 0.32%): 6449.101 min
Time (min) to achieve 4 log reduction (PAA 0.04% by weight, H2O2 0.00% (PAA alone), extrapolated from data for PAA 0.08, 0.16 and 0.32%): 613.9362 min
Time (min) to achieve 4 log reduction (PAA 0.08% by weight, H2O2 0.00% (PAA alone)): 70.40 min
Time (min) to achieve 4 log reduction (PAA 0.16% by weight, H2O2 0.00% (PAA alone)): 4.64 min
